The values that follow come from publication PMC10547880, “Synthesis and biological evaluation of novel 1,2,3-triazole hybrids of cabotegravir: identification of potent antitumor activity against lung cancer” (Frontiers in Pharmacology, 2023).

Common to all, as to format: cell-based, Human
For series [1], the system named is H1299 cells. The experiment in a line: CCK8 cell viability, H1299. To be noted: H1299, 25 μM, 48 h. The procedure: (§1) Human lung cancer cell line H460 and H1299, human liver normal cell line LO2 were bought from ATCC. DMEM or RPMI 1640 was used as the cell culture medium with 10% FBS and 1% penicillin/streptomycin. Cells were maintained in an incubator with 37°C humidified atmosphere and 5% CO2.
(§2) Cell viability and IC50 values were determined using the CCK8 assay kit. Cells were seeded at a density of 5 × 10^3 cells per well in a 96-well plate. After overnight adhesion, 25 μM of compounds or vehicle control DMSO which all dissolved in the culture medium were added to cells and cultured for 48 h or 72 h. CCK8 reagent, dissolved in the medium, was then added to cells and incubated for 1 h. The absorbance at 450 nm was measured using a microplate spectrophotometer (Thermo). Cell viability was calculated, with the untreated group taken as 100%. For IC50 values determination, different concentrations (0, 0.4 μM, 2 μM, 10 μM, 20 μM, 50 μM) of compounds were added to cells for 72 h. Subsequent CCK8 measurement allowed the calculation of inhibition percentage based on cell viability. The IC50 values were computed by the prism statistical software. The CCK-8 assay was conducted three times and the repetitions in each time were at least three. All the values were expressed as Mean ± SD, p < 0.05 was considered statistically significant.
(§3) In order to assess the potential cytotoxicity of the synthesized compounds, we selected two types of human non-small-cell lung cancer cell line, H460 and H1299. Cell viability and cytotoxicity were evaluated using the CCK8 assay ([Xu et al., 2018]). The cells were treated with 25 μM of compounds 5a-5s and 6a-6i for 48h and 72 h. […] In contrast, no compounds managed to reduce H1299 cell viability to less than 50%, yet compounds 5i, 5m, 6h and 6i achieved cell viability rates below 70%. […] It is worth noting that minimal effects on the cell viability of the normal cell line LO2 were observed when exposed to these compounds. Further, we determined the half-maximal inhibitory concentration (IC50) of selected compounds against H460 cells, the results of which were summarized in Table 3.

In series [2] the test system is H460 cells. The series can be described thus: CCK8 cell viability and IC50 measurement, H460. The protocol: as §1, §2, §3
For series [3], the system named is H460 cells. The experiment in a line: Apoptosis assay, Annexin V-FITC/PI flow cytometry, H460. Particulars: H460, 2, 4 and 8 μM, 72 h. The procedure: Cells with a density of 3 × 10^5 cells per well were seeded in 6-well plates. After overnight adhesion, cells were treated with different concentrations of compounds for 72 h. Cells were harvested and stained with Annexin V-FITC and propidium iodide. Apoptotic ratio was quantified using the flow cytometry (BD Biosciences) and analyzed using the FlowJo software v10. Values were expressed as Mean ± SD, p < 0.05 was considered statistically significant. Data were performed using Graph Prim 7.0.
Apoptosis is a programmed-controlled process of cell self-destruction, and increased cell apoptosis can lead to cell death ([Wang et al., 2023]). To explore the preliminary molecular mechanisms of the synthesized compounds action, the apoptotic activity of compound 5i was evaluated by comparing the percentage of apoptotic cells with untreated cells using flow cytometry after staining with Annexin V-FITC and PI ([Chen et al., 2022a]). This assay facilitates the detection of necrotic cells (Q1, AV-/PI+), late apoptotic cells (Q2, AV+/PI+), early apoptotic cells (Q3, AV+/PI-), and live cells (Q4, AV-/PI-). H460 and H1299 cells were treated with different doses of compound 5i for 72h, and cells were collected, stained, and analyzed. The proportion of early and late apoptotic cells was added and their ratio relative to the total cells was calculated.

For series [4], the system named is H460 cells. The series can be described thus: Live/dead cell staining (Calcein-AM/PI), H460. Particulars: H460, 5, 10, 20 μM, 24 h. The protocol: Cells with a density of 5 × 10^3 cells per well were seeded in a 96-well plate. After overnight incubation, cells were treated with different concentrations (0, 5 μM, 10 μM, 20 μM) of compounds for 24 h. The LIVE/DEAD Assay Kit was used to dye cells, and cells were observed and photographed under a fluorescent microscope. Live and Dead cell numbers were counted and the ratio of dead to living cells were calculated. Values were expressed as Mean ± SEM, p < 0.05 was considered statistically significant. Data were performed using Graph Prim 7.0. To assess the anti-proliferative effects of compound 5i, live/dead cell staining was performed using Calcein Acetoxymethyl Ester (Calcein-AM) and Propidium Iodide (PI) dyes ([Xie et al., 2023]). Calcein-AM highlights live cells through green fluorescence emission, while PI identifies dead cells with damaged membrane integrity, producing red fluorescence. H460 and H1299 cells were treated with different concentrations (0, 5, 10 and 20 μM) of compound 5i for 24 h. After 24 h treatment, cells were stained with Calcein-AM and PI, diluted in cultured medium, and incubated for an hour in dark. Then the fluorescence was detected and photographed using a fluorescent microscope. […] In addition, we also performed plate clone formation assay ([Xu et al., 2018]) to further investigate the anti-proliferation ability of compound 5i. […]

For series [5], the system named is H1299 cells. The series can be described thus: Plate clone formation assay, H1299. To be noted: H1299, 2-32 μM. The procedure:
Cells with the density of 500 cells per well were seeded in a 6-well plate. Different concentrations (0, 2 μM, 4 μM, 8 μM, 16 μM and 32 μM) of compounds were added to cells and maintained for a 72- hour duration. And cells were cultured until the monoclonal appeared. Afterward, cells were fixed with 4% paraformaldehyde and stained by Giemsa dye. The plate clone numbers were photographed and counted using a microscope. Values were expressed as Mean ± SEM, p < 0.05 was considered statistically significant. Data were performed using Graph Prim 7.0.
To assess the anti-proliferative effects of compound 5i, live/dead cell staining was performed using Calcein Acetoxymethyl Ester (Calcein-AM) and Propidium Iodide (PI) dyes ([Xie et al., 2023]). Calcein-AM highlights live cells through green fluorescence emission, while PI identifies dead cells with damaged membrane integrity, producing red fluorescence. H460 and H1299 cells were treated with different concentrations (0, 5, 10 and 20 μM) of compound 5i for 24 h. After 24 h treatment, cells were stained with Calcein-AM and PI, diluted in cultured medium, and incubated for an hour in dark. Then the fluorescence was detected and photographed using a fluorescent microscope. […] In addition, we also performed plate clone formation assay ([Xu et al., 2018]) to further investigate the anti-proliferation ability of compound 5i. […]

Another series concerns LO2 cells. The experiment in a line: CCK8 cell viability, normal cell line LO2. Particulars: LO2 normal liver cells, 25 μM, 72 h. The protocol:
as §1, §2, §3

A word on the IC50: it is the concentration that gives 50% inhibition. A lower IC50 goes with higher potency.

Take `COc1c2n(cc(C(=O)Nc3cccc(-c4cn(-c5ccccc5OC(F)(F)F)nn4)c3)c1=O)CC1OCC(C)N1C2=O` (stereo not shown) [Compound 5i]: the Cell viability with H1299 cells [1] is 90.47%; in the series with LO2 cells, 99.80%. Also, the “cell proliferation inhibition rate” value in the series with H460 cells [2] (H460, 72-h treatment) is listed as “exceed 50%”. The IC50 in the series with H460 cells [2] (H460, 72 h, CCK8) came out at 6.06 ± 1.8 µM. Besides, the “apoptotic cells (early + late)” value in the series on H460 cells [3] is reported as “significant increase in apoptotic cells”. Moreover, the “live and dead cell numbers” value in the series on H460 cells [4] is “significantly decreased the number of live cells and increased the number of dead cells”. In addition, the “number of cell clones” value in the series with H1299 cells [5] is recorded as “reduction in the number of cell clones”.
